Assay results reported in patent publication US20230174571A1, “METHOD OF TREATING SHIP1-MEDIATED DISEASES USING PELOROL DERIVATIVES” (Zebrapeutics Inc., priority 2020, published 2023).
Numbering of substitutions follows the chain as printed.

Tests used:
SHIP1 and STAT3 = molecular target: T1, SHIP1 and STAT3 (Mus musculus, UniProt Q9ES52); assay: In vitro pull down assay of His6-SHIP1 with STAT3; format: cell-based; conditions: J17 His6-SHIP1 cells; 100 ng/ml IL10 or IL6, 20 μM compound I-2; 5 minutes
T1 construct: expressed in transfected cells; host or cells: J17 (SHIP1-/- mouse BMDM-derived line), lentiviral transduction
T1 sequence (Q9ES52 1-1191): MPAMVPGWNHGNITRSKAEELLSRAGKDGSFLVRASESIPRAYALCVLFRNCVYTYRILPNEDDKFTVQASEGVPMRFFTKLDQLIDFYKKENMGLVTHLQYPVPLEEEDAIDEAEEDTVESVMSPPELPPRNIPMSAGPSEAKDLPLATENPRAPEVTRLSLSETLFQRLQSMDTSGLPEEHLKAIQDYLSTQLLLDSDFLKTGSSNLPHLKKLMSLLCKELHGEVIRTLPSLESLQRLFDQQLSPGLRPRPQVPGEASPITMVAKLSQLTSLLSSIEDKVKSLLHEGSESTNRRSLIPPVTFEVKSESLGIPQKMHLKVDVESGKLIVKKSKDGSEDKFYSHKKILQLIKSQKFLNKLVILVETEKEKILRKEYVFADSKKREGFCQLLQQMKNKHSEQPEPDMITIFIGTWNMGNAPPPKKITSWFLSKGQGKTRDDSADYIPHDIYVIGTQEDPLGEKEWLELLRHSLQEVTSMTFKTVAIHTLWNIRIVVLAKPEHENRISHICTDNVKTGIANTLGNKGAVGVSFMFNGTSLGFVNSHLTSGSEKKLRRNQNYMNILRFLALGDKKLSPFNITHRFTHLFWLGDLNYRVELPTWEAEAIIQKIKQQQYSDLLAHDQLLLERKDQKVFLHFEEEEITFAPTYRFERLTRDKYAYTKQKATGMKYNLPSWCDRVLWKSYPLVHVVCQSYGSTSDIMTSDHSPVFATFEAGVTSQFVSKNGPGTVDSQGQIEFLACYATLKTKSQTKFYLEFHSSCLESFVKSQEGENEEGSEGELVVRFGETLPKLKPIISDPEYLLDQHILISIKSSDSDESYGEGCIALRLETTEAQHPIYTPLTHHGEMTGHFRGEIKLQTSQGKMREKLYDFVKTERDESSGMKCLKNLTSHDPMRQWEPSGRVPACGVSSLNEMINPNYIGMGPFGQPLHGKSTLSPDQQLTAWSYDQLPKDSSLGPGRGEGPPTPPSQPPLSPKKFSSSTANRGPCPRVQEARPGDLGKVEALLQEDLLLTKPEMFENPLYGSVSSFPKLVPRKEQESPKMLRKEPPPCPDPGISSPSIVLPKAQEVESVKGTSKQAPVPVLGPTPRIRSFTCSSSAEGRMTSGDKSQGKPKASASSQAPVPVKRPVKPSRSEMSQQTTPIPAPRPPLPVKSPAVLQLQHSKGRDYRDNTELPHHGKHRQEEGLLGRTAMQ
Protocol: In vitro pull down assay. J17 His6-SHIP1 and Y190F cells were seeded at 2×10^6 cells per well in a 6-well plate. After overnight incubation, fresh cell media was added for 30 minutes before stimulation with 100 ng/ml IL10, […] or 20 μM compound I-2 for 5 minutes. Cells were lysed with Protein Solubilization Buffer (PSB, 50 mM Hepes, pH 7.5, […], 10 mM Na Pyrophosphate, 2 mM NaVO4, 2 mM Na Molybdate, 2 mM EDTA) containing 1% octylglucoside, 0.01 M imidazole, and protease inhibitor cocktail (Roche Diagnostics, Laval, QC) for 30 minutes at 4° C. and centrifuged at 10000 rpm for 15 minutes. EDTA resistant Ni beads (Roche Diagnostics, Laval, QC) were added to supernatants and the mixture incubated at 4° C. for 1 hour before spinning down and washing of beads three times with 0.1% octylglucoside wash buffer in PSB. Bead samples and starting material cell lysates were separated on a 7.5% SDS-PAGE gel.
Immunoblotting. Protein lysates were separated on SDS-PAGE gels and transferred onto polyvinylidene fluoride (PVDF) membrane (Millipore, Etobicoke, ON). Membranes were blocked and probed, where appropriate, with the following primary antibodies overnight: SHIP1 (P1C1) (Santa Cruz Biotechnology), pSHIP1 (Y190) (Kinexus), STAT3 (9D8) (ThermoFisher Scientific), pSTAT3 (Y705) (Thermo Fisher Scientific), STAT1 (BD Transduction Laboratories), pSTAT1 (Y701) (Upstate Biotechnology), GAPDH and actin (Sigma-Aldrich). Membranes were developed with either Alexa Fluor® 660 anti-mouse IgG or Alexa Fluor® 680 anti-rabbit IgG antibodies (Thermo Fisher Scientific) and imaged using a LI-COR Odyssey Imager.

[1] = molecular target: T2, Clover-SHIP1 and mRuby2-STAT3 (Mus musculus, UniProt Q9ES52); assay: Acceptor photobleaching FRET analysis; format: cell-based; conditions: J17 SHIP1−/− cells expressing Clover-SHIP1/mRuby2-STAT3; 1 minute; 100 ng/ml IL10, IL6 or 20 μM I-2
T2 construct: expressed in transfected cells; host or cells: J17 (SHIP1-/- mouse macrophage line), lentiviral transduction
T2 sequence (P42227 whole entry partner, one chain of several): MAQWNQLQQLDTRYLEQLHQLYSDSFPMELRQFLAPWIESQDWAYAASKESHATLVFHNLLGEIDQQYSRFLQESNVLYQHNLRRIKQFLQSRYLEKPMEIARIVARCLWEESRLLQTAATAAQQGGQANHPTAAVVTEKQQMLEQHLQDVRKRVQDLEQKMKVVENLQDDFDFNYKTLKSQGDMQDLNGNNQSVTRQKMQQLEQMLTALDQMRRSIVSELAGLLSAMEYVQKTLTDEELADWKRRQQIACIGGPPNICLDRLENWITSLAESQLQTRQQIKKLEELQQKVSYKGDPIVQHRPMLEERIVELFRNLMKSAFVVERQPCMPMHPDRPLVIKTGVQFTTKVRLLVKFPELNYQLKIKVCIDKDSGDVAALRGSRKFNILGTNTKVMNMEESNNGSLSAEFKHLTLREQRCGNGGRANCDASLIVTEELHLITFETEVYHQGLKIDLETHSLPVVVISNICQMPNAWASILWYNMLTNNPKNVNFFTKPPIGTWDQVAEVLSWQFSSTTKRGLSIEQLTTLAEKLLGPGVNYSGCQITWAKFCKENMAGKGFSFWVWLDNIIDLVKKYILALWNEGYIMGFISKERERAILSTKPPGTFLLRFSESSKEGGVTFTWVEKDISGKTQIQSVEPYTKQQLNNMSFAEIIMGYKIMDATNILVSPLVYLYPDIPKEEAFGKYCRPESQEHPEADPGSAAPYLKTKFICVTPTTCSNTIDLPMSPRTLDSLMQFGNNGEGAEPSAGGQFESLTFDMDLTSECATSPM
Protocol: Acceptor Photobleaching FRET analysis. J17 cells expressing Clover-SHIP1 and/or mRuby2-STAT3 were seeded at 50×10^4 cells per well in 8-well Ibidi p-Slides (Ibidi GmbH, Martinsried, Germany). After overnight incubation, cells were serum-starved with Mac media containing 1% serum for 3 hours before media replacement with Leibovitz's (L-15) media (Invitrogen, Burlington, ON) supplemented with 1% serum, 10 μM β-mercaptoethanol, 150 μM monothioglycolate and 1 mM L-glutamine for confocal microscopy imaging. Cells were imaged on a Leica SP8X on DMi8 confocal microscope system with a 63×/1.3 Gly HC PL APO CS2 objective using a white light laser line with 488 nm for donor excitement and 555 nm for acceptor excitement. Photobleaching FRET analysis was performed by measuring Clover-SHIP1 donor fluorescence intensity before and after bleaching the acceptor, mRuby2-STAT3, within a field of cells ‘region of interest’ (ROI), at 100% laser intensity for 60 frames. Acceptor photobleaching was performed first in resting cells then at 1 minute (±5 seconds) following ‘mock’ stimulation with L-15 media, or L-15 media containing 100 ng/ml IL10, IL6 or 20 μM compound I-2. Donor and acceptor fluorescence intensity of individual cells within the bleached ROI was quantified before and after bleaching. Percentage FRET efficiency was calculated as % FRETeff=100×(Dpost−Dpre)/Dpost where Dpre and Dpost represent Clover-SHIP1 donor fluorescence intensity before and after bleaching, respectively.

PAC2 WT = molecular target: T3, PAC2 WT (Mus musculus, UniProt Q9ES52); assay: Biolayer interferometry, wild-type PAC2; format: binding; conditions: 20 μM analyte; compared to compound I-2 or PI(3,4)P2
T3 construct: PAC1 and PAC2 consists of phosphatase and C2 domain (residues aa 402-861 and aa 402-857 respectively); made in house; host or cells: E. coli BL21 co-transformed with pBirAcm
T3 sequence (Q9ES52 402-857): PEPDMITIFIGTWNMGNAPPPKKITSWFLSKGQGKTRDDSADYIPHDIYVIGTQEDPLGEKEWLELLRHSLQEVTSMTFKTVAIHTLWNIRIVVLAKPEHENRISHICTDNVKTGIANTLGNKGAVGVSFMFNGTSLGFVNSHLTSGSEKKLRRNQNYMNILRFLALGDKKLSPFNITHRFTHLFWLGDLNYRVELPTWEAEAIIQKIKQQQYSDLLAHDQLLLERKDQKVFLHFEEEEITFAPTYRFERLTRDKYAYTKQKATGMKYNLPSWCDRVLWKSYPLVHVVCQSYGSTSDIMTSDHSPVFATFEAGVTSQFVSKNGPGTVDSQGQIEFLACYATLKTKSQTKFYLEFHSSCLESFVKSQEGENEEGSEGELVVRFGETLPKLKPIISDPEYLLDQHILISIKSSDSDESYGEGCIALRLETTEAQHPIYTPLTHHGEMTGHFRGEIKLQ
Protocol: (§1) Expression of PAC2-Avi tag for Biolayer interferometry. A sequence corresponding to Avi-tag ([…]) was added to the c-terminal end of the PAC2 in LIC-HMT-PAC2 expressing vector via standard restriction digestion and ligation. The LIC-HMT-PAC2-Avi expressing vector was then co-transformed into E. coli BL21 cells with pBirAcm expression vector in 1:1 molar ratio. Overnight culture was inoculated with a 250-fold dilution to start the actual culture. The cells were grown at 37° C. in LB medium (supplemented with 50 μg/mL of kanamycin and 10 μg/mL of chloramphenicol) with shaking speed of 225 rpm. When OD600 reached about 0.6, 5 mM of biotin in bicine buffer pH 8.3 was added to the culture to have final concentration of 125 μM of biotin. The culture was then cooled down to room temperature before the addition of 0.4 mM isopropyl-B-D-1-thiogalactopyranoside (IPTG) to induce the expression of the recombinant protein with Avi-tag. The rest of the method is identical as written in “Expression of PAC2 for crystallography”.
(§2) Biolayer interferometry. […] The association was measured for 600 s at an analyte concentration of 20 μM followed by dissociation for 300 s in the same buffer as the baseline. The raw data was analyzed using the Octet Red Data Analysis software (ver. 8.2). […]

SHIP1 [2] = molecular target: T4, SHIP1 (Homo sapiens, UniProt Q92835); conditions: Stenton et al., 2013b; cited from earlier work
T4 sequence (Q92835 1-1189): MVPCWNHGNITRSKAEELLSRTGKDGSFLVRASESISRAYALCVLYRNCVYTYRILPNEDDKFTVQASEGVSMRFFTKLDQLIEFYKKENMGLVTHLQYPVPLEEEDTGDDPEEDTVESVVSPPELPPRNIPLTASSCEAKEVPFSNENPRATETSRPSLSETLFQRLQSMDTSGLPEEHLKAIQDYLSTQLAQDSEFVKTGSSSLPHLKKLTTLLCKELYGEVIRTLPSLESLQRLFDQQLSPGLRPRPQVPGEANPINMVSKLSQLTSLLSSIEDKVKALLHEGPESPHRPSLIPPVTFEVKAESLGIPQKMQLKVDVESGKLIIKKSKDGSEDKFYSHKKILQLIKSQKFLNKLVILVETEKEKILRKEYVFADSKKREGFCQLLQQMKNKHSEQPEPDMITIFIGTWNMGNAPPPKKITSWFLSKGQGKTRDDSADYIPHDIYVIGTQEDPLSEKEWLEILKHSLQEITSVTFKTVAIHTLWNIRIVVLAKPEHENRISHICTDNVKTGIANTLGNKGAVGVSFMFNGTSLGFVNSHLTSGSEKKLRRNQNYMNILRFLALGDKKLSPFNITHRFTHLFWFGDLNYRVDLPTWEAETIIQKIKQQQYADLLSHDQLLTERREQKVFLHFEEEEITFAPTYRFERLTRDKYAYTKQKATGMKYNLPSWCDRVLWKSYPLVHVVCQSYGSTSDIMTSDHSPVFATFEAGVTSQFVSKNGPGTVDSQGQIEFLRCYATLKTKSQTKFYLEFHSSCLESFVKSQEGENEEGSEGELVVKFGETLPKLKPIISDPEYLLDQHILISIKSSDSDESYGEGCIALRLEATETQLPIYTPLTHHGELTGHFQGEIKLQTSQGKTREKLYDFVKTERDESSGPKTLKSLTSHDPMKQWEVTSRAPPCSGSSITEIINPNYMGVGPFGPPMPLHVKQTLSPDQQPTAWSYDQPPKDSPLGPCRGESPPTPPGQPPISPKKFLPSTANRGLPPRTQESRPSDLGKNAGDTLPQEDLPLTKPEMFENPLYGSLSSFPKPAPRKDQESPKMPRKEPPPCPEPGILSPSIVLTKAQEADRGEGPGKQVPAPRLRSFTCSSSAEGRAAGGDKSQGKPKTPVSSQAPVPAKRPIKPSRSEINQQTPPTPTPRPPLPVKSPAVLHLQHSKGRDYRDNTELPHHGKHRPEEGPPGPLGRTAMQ

SHIP1 [3] = molecular target: T4, SHIP1; conditions: scintillation proximity assay, Stenton et al; cited from earlier work
PAC2-K681A = molecular target: T5, PAC2-K681A (Mus musculus, UniProt Q9ES52, K681A); assay: Biolayer interferometry, PAC2-K681A; format: binding; conditions: 20 μM analyte; K681A vs wild-type PAC2
T5 construct: PAC1 and PAC2 consists of phosphatase and C2 domain (residues aa 402-861 and aa 402-857 respectively); made in house; host or cells: E. coli BL21 co-transformed with pBirAcm
T5 sequence (Q9ES52 402-857 K681A): T3 sequence (Q9ES52 402-857) with K280A
Protocol: as §1, §2

In the case of IL6: pro-inflammatory cytokine IL6, the “association (co-precipitation) of SHIP1 and STAT3” value (SHIP1 and STAT3) is reported as “failed to induce STAT3 association with SHIP1” and the “Clover-mRuby2 FRET signal” value [1] is reported as “not”.
For `C=C1CC[C@H]2[C@H](CN)[C@@H]([C@@]3(C)CC[C@H](O)C[C@@H]3CO)CC[C@]12C` [AQX-1125/Rosiptor], the “binding to SHIP1 (PAC2 WT) in BLI assay” value (PAC2 WT) is listed as “binds very poorly”, the “SHIP1 phosphatase enhancing activity” value (SHIP1 [2]) is listed as “marginal” and the “signal of tritiated compound binding to SHIP1 protein” value (SHIP1 [3]) is listed as about 300 cpm.
For PI(3,4)P2 [reference compound], the “binding to PAC2 with K681A substitution (BLI)” value (PAC2-K681A) was “impairs”.
